# Active and inactive are the calls of the source. No cut-off for these calls is given here.
# Legend:
# HMEC-1 [1] = experiment: Antiproliferative activity against HMEC1 cells after 2 days by MTT assay; assay type: functional, cell-based; conditions: Homo sapiens, HMEC-1, 48 h
# HL-60 = experiment: Antiproliferative activity against human HL60 cells after 2 days by MTT assay; assay type: functional, cell-based; conditions: HL-60, 48 h
# A549 [2] = experiment: Cell cycle arrest in human A549 cells assessed as accumulation at G2/M phase at 750 nM after 20 hrs by propidium iodide staining based flow cytometry (reference value: 11 +/- 1%); assay type: functional
# HEK293 = experiment: Antiproliferative activity against HEK293 cells after 2 days by MTT assay; assay type: cell-based; conditions: Homo sapiens, HEK293, 48 h
# MCF7 = experiment: Antiproliferative activity against human MCF7 cells after 2 days by MTT assay; assay type: functional, cell-based; conditions: MCF7, 48 h
# MDA-MB-231 [3] = experiment: Antiproliferative activity against human MDA-MB-231 cells after 3 days by coulter counting method; assay type: functional, cell-based; conditions: MDA-MB-231, 72 h
# A549 [4] = experiment: Antiproliferative activity against human A549 cells after 2 days by MTT assay; assay type: functional, cell-based; conditions: A549, 48 h
# A549 [5] = experiment: Cell cycle arrest in human A549 cells assessed as accumulation at sub-G0 phase at 750 nM after 20 hrs by propidium iodide staining based flow cytometry (reference value: 6.6 +/- 0.1%); assay type: functional
# HeLa = experiment: Antiproliferative activity against human HeLa cells after 2 days by MTT assay; assay type: functional, cell-based; conditions: 48 h
# HT-29 = experiment: Antiproliferative activity against human HT-29 cells after 2 days by MTT assay; assay type: functional, cell-based; conditions: HT-29, 48 h
# A549 [6] = experiment: Cell cycle arrest in human A549 cells assessed as accumulation at S phase at 750 nM after 20 hrs by propidium iodide staining based flow cytometry (reference value: 16 +/- 1%); assay type: functional
# A549 [7] = experiment: Cell cycle arrest in human A549 cells assessed as accumulation at G2/M phase at 70 nM after 20 hrs by propidium iodide staining based flow cytometry (reference value: 11 +/- 1%); assay type: functional
# MDA-MB-231 [8] = experiment: Inhibition of EBI binding to beta-tubulin colchicine binding site in human MDA-MB-231 cells at 3 uM preincubated for 16 hrs followed by EBI addition and measured after 1.5 hrs by Western blot analysis; assay type: cell-based
# A549 [9] = experiment: Induction of apoptosis in human A549 cells at 10 nM after 24 hrs by Annexin V-FITC/propidium iodide staining based flow cytometry (reference value: 28%); assay type: functional
# A549 [10] = experiment: Cell cycle arrest in human A549 cells assessed as accumulation at sub-G0 phase at 70 nM after 20 hrs by propidium iodide staining based flow cytometry (reference value: 6.6 +/- 0.1%); assay type: functional
# HMEC-1 [11] = experiment: Vascular disruptive activity in HMEC1 cells assessed as disruption of preformed tubular networks after 4 hrs by matrigel based assay; assay type: functional, cell-based; conditions: Homo sapiens
# A549 [12] = experiment: Cell cycle arrest in human A549 cells assessed as accumulation at S phase at 70 nM after 20 hrs by propidium iodide staining based flow cytometry (reference value: 16 +/- 1%); assay type: functional
# A549 [13] = experiment: Induction of apoptosis in human A549 cells after 24 hrs by Annexin V-FITC/propidium iodide staining based flow cytometry; assay type: functional, cell-based
# Bos taurus = species on record: Bos taurus; experiment: Inhibition of calf brain tubulin polymerization after 60 mins by turbidimetric method
# A549 [14] = experiment: Induction of apoptosis in human A549 cells at 100 nM after 24 hrs by Annexin V-FITC/propidium iodide staining based flow cytometry (reference value: 28%); assay type: functional
# A549 [15] = experiment: Cell cycle arrest in human A549 cells assessed as accumulation at S phase at 200 nM after 20 hrs by propidium iodide staining based flow cytometry (reference value: 16 +/- 1%); assay type: functional
# A549 [16] = experiment: Cell cycle arrest in human A549 cells assessed as accumulation at G0/G1 phase at 200 nM after 20 hrs by propidium iodide staining based flow cytometry (reference value: 66 +/- 1%); assay type: functional
# A549 [17] = experiment: Cell cycle arrest in human A549 cells assessed as accumulation at sub-G0 phase at 200 nM after 20 hrs by propidium iodide staining based flow cytometry (reference value: 6.6 +/- 0.1%); assay type: functional
# [18] = Selectivity index, ratio of IC50 for antiproliferative activity against HEK293 cells to IC50 for antiproliferative activity against human HL60 cells; assay type: toxicity, cell-based; conditions: HEK293 cells versus HL60 cells, read-out: Ratio IC50
# [19] = Selectivity index, ratio of IC50 for antiproliferative activity against HEK293 cells to IC50 for antiproliferative activity against human HT-29 cells; assay type: toxicity, cell-based; conditions: HEK293 cells versus HT-29 cells, read-out: Ratio IC50
# A549 [20] = experiment: Cell cycle arrest in human A549 cells assessed as accumulation at G2/M phase at 200 nM after 20 hrs by propidium iodide staining based flow cytometry (reference value: 11 +/- 1%); assay type: functional
# [21] = Selectivity index, ratio of IC50 for antiproliferative activity against HEK293 cells to IC50 for antiproliferative activity against human HeLa cells; assay type: toxicity, cell-based; conditions: HEK293 cells versus HeLa cells, read-out: Ratio IC50
# [22] = Selectivity index, ratio of IC50 for antiproliferative activity against HEK293 cells to IC50 for antiproliferative activity against human MCF7 cells; assay type: toxicity, cell-based; conditions: HEK293 cells versus MCF7 cells, read-out: Ratio IC50
# A549 [23] = experiment: Cell cycle arrest in human A549 cells assessed as accumulation at sub-G0 phase at 80 nM after 20 hrs by propidium iodide staining based flow cytometry (reference value: 6.6 +/- 0.1%); assay type: functional
# A549 [24] = experiment: Cell cycle arrest in human A549 cells assessed as accumulation at G2/M phase at 80 nM after 20 hrs by propidium iodide staining based flow cytometry (reference value: 11 +/- 1%); assay type: functional
# A549 [25] = experiment: Cell cycle arrest in human A549 cells assessed as accumulation at S phase at 80 nM after 20 hrs by propidium iodide staining based flow cytometry (reference value: 16 +/- 1%); assay type: functional
# A549 [26] = experiment: Cell cycle arrest in human A549 cells assessed as accumulation at G0/G1 phase at 80 nM after 20 hrs by propidium iodide staining based flow cytometry (reference value: 66 +/- 1%); assay type: functional
SMILES,IC50 (HL-60) [nM],IC50 (MCF7) [nM],IC50 (MDA-MB-231 [3]) [nM],IC50 (A549 [4]) [nM],IC50 (HeLa) [nM],IC50 (HT-29) [nM],IC50 (HMEC-1 [1]) [nM],IC50 (HEK293) [nM],inhibition (MDA-MB-231 [8]),Activity (A549 [9]) [%],Activity (HMEC-1 [11]),Activity (A549 [13]),Activity (A549 [14]) [%],Activity (A549 [15]) [%],Activity (A549 [16]) [%],Activity (A549 [17]) [%],Activity (A549 [20]) [%],further results
COc1ccc(/C=C\c2cc(OC)c(OC)c(OC)c2)cc1NC(=O)Oc1cc(C)cc(C)c1,620,210,12,1540,130,260,180,150,–,–,–,–,–,–,–,–,–,Activity (A549 [2]): 38%; Activity (A549 [5]): 22%; Activity (A549 [6]): 16%
COc1ccc(/C=C\c2cc(OC)c(OC)c(OC)c2)cc1NC(=O)Oc1cccc(C)c1,67,25,13.6,390,23,46,50,40,–,–,–,–,–,16,26,22,36,–

# These reach a lower IC50 (HL-60). Values come first.
IC50 (HL-60) [nM],IC50 (MCF7) [nM],IC50 (MDA-MB-231 [3]) [nM],IC50 (A549 [4]) [nM],IC50 (HeLa) [nM],IC50 (HT-29) [nM],SMILES,IC50 (HMEC-1 [1]) [nM],IC50 (HEK293) [nM],inhibition (MDA-MB-231 [8]),Activity (A549 [9]) [%],Activity (HMEC-1 [11]),Activity (A549 [13]),Activity (A549 [14]) [%],Activity (A549 [15]) [%],Activity (A549 [16]) [%],Activity (A549 [17]) [%],Activity (A549 [20]) [%],further results
50,95.4,13.8,400,60,60,COc1ccc(/C=C\c2cc(OC)c(OC)c(OC)c2)cc1NC(=O)Oc1ccc(F)cc1,65,185,–,–,–,–,–,19,26,21,34,selectivity ratio [18]: 2 to 11; selectivity ratio [19]: 2 to 11; selectivity ratio [21]: 2 to 11; selectivity ratio [22]: 2 to 11
4.9,7.18,8,160,3.4,4.8,COc1cccc(OC(=O)Nc2cc(/C=C\c3cc(OC)c(OC)c(OC)c3)ccc2OC)c1,5,8.1,Active,49,Dose-dependent effect,Dose-dependent effect,92,–,–,–,–,Activity (A549 [23]): 17%; Activity (A549 [24]): 36%; Activity (A549 [25]): 16%; Activity (A549 [26]): 31%
0.4,8.1,4,140,3.3,11.4,COc1ccc(/C=C\c2cc(OC)c(OC)c(OC)c2)cc1NC(=O)Oc1ccc(Cl)c(C)c1,7,8.4,Active,41,Dose-dependent effect,Dose-dependent effect,90,–,–,–,–,Activity (A549 [7]): 36%; Activity (A549 [10]): 18%; Activity (A549 [12]): 22%; inhibition (Bos taurus): Active

# — ChEMBL document CHEMBL4145540 (Eur J Med Chem, 2018)
